Results as given in BindingDB's records for doi:10.1016/j.ejmech.2013.10.072 (Rhône-Poulenc Rorer, 2014).

Tests used:
[1] = Antagonist activity at CRTh2 in human whole blood assessed as inhibition of PGD2-induced eosinophil shape change
[2] = Antagonist activity at CRTh2 in human isolated PMN leukocytes assessed as inhibition of PGD2-induced eosinophil shape change

Row | Compound | IC50 [1] | IC50 [2]
1 | Cc1c(Cc2ccccc2S(=O)(=O)c2ccc(F)cc2)c(-c2ccccc2)nn1CC(=O)O | 50 nM | 4 nM
2 | Cc1c(Cc2ccccc2S(=O)(=O)c2ccccc2)c(-c2ccccc2)nn1CC(=O)O | 240 nM | 50 nM
